Data: patent US10633353B2, “Polymerizable compound, composition, polymer, optically anisotropic body, liquid crystal display element, and organic EL display” (DIC Corporation, priority 2014, dated 2020)

Assay: Preservation stability of the coating liquid
Format: physicochemical
Conditions: coating liquid stored for 2 months shielded from light at 0° C.; appearance and GPC
In short: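 Coating liquid stored 2 months at 0° C shielded from light, then graded A–E. Grades rest on visual appearance, change in composition by GPC, and weight ratio of insoluble components to total solids.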

Row | SMILES | Preservation stability
1 | C=CC(=O)OCCCCCCOc1ccc(C(=O)Oc2ccc(C(=O)Oc3ccc(OCCCCCCOC(=O)C=C)cc3/C=N/Nc3nc4ccccc4s3)cc2)cc1 [1-eh-72] | A (No visual change in the appearance of the coating liquid was confirmed. A GPC analysis of the coating liquid confirmed that the change in the composition of the coating liquid was 1% or less.)
2 | C=CC(=O)OCCCOc1ccc(C(=O)Oc2ccc3cc(C(=O)Oc4ccc(OCCCOC(=O)C=C)cc4/C=N/Nc4nc5ccccc5s4)ccc3c2)cc1 [1-eh-74] | A (No visual change in the appearance of the coating liquid was confirmed. A GPC analysis of the coating liquid confirmed that the change in the composition of the coating liquid was 1% or less.)
3 | C=CC(=O)OCCCCCCOc1ccc(OC(=O)c2ccc(OC(=O)c3ccc4cc(OCCCCCCOC(=O)C=C)ccc4c3)cc2)c(/C=N/Nc2nc3ccccc3s2)c1 [1-eh-75] | A (No visual change in the appearance of the coating liquid was confirmed. A GPC analysis of the coating liquid confirmed that the change in the composition of the coating liquid was 1% or less.)
4 | C=CC(=O)OCCCCOC1CCC(C(=O)Oc2ccc(OC(=O)C3CCC(OCCCCOC(=O)C=C)CC3)c(/C=N/Nc3nc4ccccc4s3)c2)CC1 (centres unmarked) [1-f-18] | A (No visual change in the appearance of the coating liquid was confirmed. A GPC analysis of the coating liquid confirmed that the change in the composition of the coating liquid was 1% or less.)
5 | C=CC(=O)OCCCCCCOC1CCC(C(=O)Oc2ccc(OC(=O)C3CCC(OCCCCCCOC(=O)C=C)CC3)c(/C=N/Nc3nc4ccccc4s3)c2)CC1 (centres unmarked) [1-f-19] | A (No visual change in the appearance of the coating liquid was confirmed. A GPC analysis of the coating liquid confirmed that the change in the composition of the coating liquid was 1% or less.)
6 | C=CC(=O)OCCCCOC(=O)C1CCC(C(=O)OC2CCC(C(=O)Oc3ccc(OC(=O)C4CCC(OC(=O)C5CCC(C(=O)OCCCCOC(=O)C=C)CC5)CC4)c(/C=N/Nc4nc5ccccc5s4)c3)CC2)CC1 (centres unmarked) [1-f-20] | A (No visual change in the appearance of the coating liquid was confirmed. A GPC analysis of the coating liquid confirmed that the change in the composition of the coating liquid was 1% or less.)
7 | C=CC(=O)OCCCCCCOC1CCC(C(=O)Oc2ccc(OC(=O)C3CCC(OCCCCCCOC(=O)C=C)CC3)c(/C=N/N(c3ccccc3)c3ccccc3)c2)CC1 (centres unmarked) [1-f-21] | A (No visual change in the appearance of the coating liquid was confirmed. A GPC analysis of the coating liquid confirmed that the change in the composition of the coating liquid was 1% or less.)
8 | C=CC(=O)OCCCCOC(=O)C1CCC(C(=O)OC2CCC(C(=O)Oc3ccc(OC(=O)C4CCC(OC(=O)C5CCC(C(=O)OCCCCOC(=O)C=C)CC5)CC4)c(/C=N/Nc4nc5ccc6ccccc6c5s4)c3)CC2)CC1 (centres unmarked) [1-f-22] | A (No visual change in the appearance of the coating liquid was confirmed. A GPC analysis of the coating liquid confirmed that the change in the composition of the coating liquid was 1% or less.)
9 | C=CC(=O)OCCCCOC(=O)C1CCC(OC(=O)C2CCC(C(=O)Oc3ccc(OC(=O)C4CCC(C(=O)OC5CCC(C(=O)OCCCCOC(=O)C=C)CC5)CC4)c(/C=N/Nc4nc5ccccc5s4)c3)CC2)CC1 (centres unmarked) [1-f-95] | A (No visual change in the appearance of the coating liquid was confirmed. A GPC analysis of the coating liquid confirmed that the change in the composition of the coating liquid was 1% or less.)
10 | C=CC(=O)OCCCCOC(=O)C1CCC(C(=O)OC2CCC(C(=O)Oc3ccc(OC(=O)C4CCC(OC(=O)C5CCC(C(=O)OCCCCOC(=O)C=C)CC5)CC4)c(/C=N/N(CCCCCC)c4nc5ccccc5s4)c3)CC2)CC1 (centres unmarked) [1-f-97] | A (No visual change in the appearance of the coating liquid was confirmed. A GPC analysis of the coating liquid confirmed that the change in the composition of the coating liquid was 1% or less.)
11 | C=CC(=O)OCCCCOC(=O)C1CCC(C(=O)OC2CCC(C(=O)Oc3ccc(OC(=O)C4CCC(OC(=O)C5CCC(C(=O)OCCCCOC(=O)C=C)CC5)CC4)c(/C=N/N(CCCCC)c4nc5ccccc5s4)c3)CC2)CC1 (centres unmarked) [1-f-98] | A (No visual change in the appearance of the coating liquid was confirmed. A GPC analysis of the coating liquid confirmed that the change in the composition of the coating liquid was 1% or less.)
12 | C=CC(=O)OCCCCOC(=O)C1CCC(C(=O)OC2CCC(C(=O)Oc3ccc(OC(=O)C4CCC(OC(=O)C5CCC(C(=O)OCCCCOC(=O)C=C)CC5)CC4)c(/C=N/N(CCCC)c4nc5ccccc5s4)c3)CC2)CC1 (centres unmarked) [1-f-99] | A (No visual change in the appearance of the coating liquid was confirmed. A GPC analysis of the coating liquid confirmed that the change in the composition of the coating liquid was 1% or less.)
13 | C=CC(=O)OCCCCOC(=O)C1CCC(C(=O)OC2CCC(C(=O)Oc3ccc(OC(=O)C4CCC(OC(=O)C5CCC(C(=O)OCCCCOC(=O)C=C)CC5)CC4)c(/C=N/N(CCC)c4nc5ccccc5s4)c3)CC2)CC1 (centres unmarked) [1-f-100] | A (No visual change in the appearance of the coating liquid was confirmed. A GPC analysis of the coating liquid confirmed that the change in the composition of the coating liquid was 1% or less.)
14 | C=CC(=O)OCCCCOC(=O)C1CCC(C(=O)OC2CCC(C(=O)Oc3ccc(OC(=O)C4CCC(OC(=O)C5CCC(C(=O)OCCCCOC(=O)C=C)CC5)CC4)c(/C=N/N(CCC)c4nc5ccccc5s4)c3)CC2)CC1 (centres unmarked) [1-f-101] | A (No visual change in the appearance of the coating liquid was confirmed. A GPC analysis of the coating liquid confirmed that the change in the composition of the coating liquid was 1% or less.)
15 | C=CC(=O)OCCCCOC(=O)C1CCC(C(=O)OC2CCC(C(=O)Oc3ccc(OC(=O)C4CCC(OC(=O)C5CCC(C(=O)OCCCCOC(=O)C=C)CC5)CC4)c(/C=N/N(CC)c4nc5ccccc5s4)c3)CC2)CC1 (centres unmarked) [1-f-102] | A (No visual change in the appearance of the coating liquid was confirmed. A GPC analysis of the coating liquid confirmed that the change in the composition of the coating liquid was 1% or less.)
16 | C=CC(=O)OCCCCOC(=O)C1CCC(C(=O)OC2CCC(C(=O)Oc3ccc(OC(=O)C4CCC(OC(=O)C5CCC(C(=O)OCCCCOC(=O)C=C)CC5)CC4)c(/C=N/N(C)c4nc5ccccc5s4)c3)CC2)CC1 (centres unmarked) [1-f-103] | A (No visual change in the appearance of the coating liquid was confirmed. A GPC analysis of the coating liquid confirmed that the change in the composition of the coating liquid was 1% or less.)
17 | C=CC(=O)Oc1ccc(C(=O)Oc2ccc(OC(=O)c3ccc(OC(=O)C=C)cc3)c(/C=N/Nc3nc4ccccc4s3)c2)cc1 [1-g-35] | B (No visual change in the appearance of the coating liquid was confirmed. A GPC analysis of the coating liquid confirmed that the change in the composition of the coating liquid was 2% or less.)
18 | C=CC(=O)OCCCCCCOc1ccc(C(=O)Oc2ccc(-c3ccc(OC(=O)c4ccc(OCCCCCCOC(=O)C=C)cc4)c(/C=N/Nc4nc5ccccc5s4)c3)cc2)cc1 [1-hk-84] | A (No visual change in the appearance of the coating liquid was confirmed. A GPC analysis of the coating liquid confirmed that the change in the composition of the coating liquid was 1% or less.)
19 | C=CC(=O)OCCCCCCOc1ccc(C(=O)Oc2ccc(-c3ccc(OC(=O)c4ccc(OCCCCCCOC(=O)C=C)cc4)cc3/C=N/Nc3nc4ccccc4s3)cc2)cc1 [1-hk-85] | A (No visual change in the appearance of the coating liquid was confirmed. A GPC analysis of the coating liquid confirmed that the change in the composition of the coating liquid was 1% or less.)
20 | C=CC(=O)OCCCCCCOc1ccc(C(=O)Oc2ccc(-c3ccc(OC(=O)c4ccc(OCCCCCCOC(=O)C=C)cc4)cc3C=NN=C3c4ccccc4-c4ccccc43)cc2)cc1 [1-hk-86] | A (No visual change in the appearance of the coating liquid was confirmed. A GPC analysis of the coating liquid confirmed that the change in the composition of the coating liquid was 1% or less.)
21 | C=CC(=O)OCCCOC(=O)/C=C/c1ccc(C(=O)Oc2ccc(OC(=O)c3ccc(/C=C/C(=O)OCCCOC(=O)C=C)cc3OC)c(/C=N/Nc3nc4ccccc4s3)c2)c(OC)c1 [1-j-57] | B (No visual change in the appearance of the coating liquid was confirmed. A GPC analysis of the coating liquid confirmed that the change in the composition of the coating liquid was 2% or less.)
22 | C=CC(=O)OCCCOC(=O)/C=C/c1ccc(C(=O)Oc2ccc(OC(=O)c3ccc(/C=C/C(=O)OCCCOC(=O)C=C)cc3)c(/C=N/Nc3nc4ccccc4s3)c2)cc1 [1-j-61] | B (No visual change in the appearance of the coating liquid was confirmed. A GPC analysis of the coating liquid confirmed that the change in the composition of the coating liquid was 2% or less.)
23 | C=CC(=O)OCCCCCCOC(=O)/C=C/c1ccc(C(=O)Oc2ccc(OC(=O)c3ccc(/C=C/C(=O)OCCCCCCOC(=O)C=C)cc3)c(/C=N/Nc3nc4ccccc4s3)c2)cc1 [1-j-62] | B (No visual change in the appearance of the coating liquid was confirmed. A GPC analysis of the coating liquid confirmed that the change in the composition of the coating liquid was 2% or less.)
24 | C=CC(=O)OCCCCOC(=O)/C=C/c1ccc(C(=O)Oc2ccc(OC(=O)c3ccc(/C=C/C(=O)OCCCCOC(=O)C=C)cc3)c(/C=N/N(c3ccccc3)c3ccccc3)c2)cc1 [1-j-64] | B (No visual change in the appearance of the coating liquid was confirmed. A GPC analysis of the coating liquid confirmed that the change in the composition of the coating liquid was 2% or less.)
25 | C=CC(=O)OCCCCOC(=O)/C=C/c1ccc(C(=O)Oc2ccc(OC(=O)c3ccc(/C=C/C(=O)OCCCCOC(=O)C=C)cc3)c(/C=N/Nc3nc4ccc5ccccc5c4s3)c2)cc1 [1-j-65] | B (No visual change in the appearance of the coating liquid was confirmed. A GPC analysis of the coating liquid confirmed that the change in the composition of the coating liquid was 2% or less.)
26 | C=CC(=O)OCCCCCCOc1ccc(C(=O)Oc2ccc(OC(=O)c3ccc(OCCCCCCOC(=O)C=C)cc3)c3sc(-c4ccc([N+](=O)[O-])cc4)nc23)cc1 [r-1, reference compound] | D (A visual change in the appearance of the coating liquid was confirmed; insoluble components were confirmed. The ratio of the weight of the insoluble components to the total solid content was 5% or less.)

Same assay, conditions: summary in words

Row | SMILES | Preservation stability
27 | C=CC(=O)OCCCCCCOc1ccc(C(=O)Oc2ccc(-c3ccc(OC(=O)c4ccc(OCCCCCCOC(=O)C=C)cc4)c(/C=N/Nc4nc5ccccc5s4)c3)cc2)cc1 [1-hk-84] | high
28 | C=CC(=O)OCCCCCCOc1ccc(C(=O)Oc2ccc(-c3ccc(OC(=O)c4ccc(OCCCCCCOC(=O)C=C)cc4)cc3/C=N/Nc3nc4ccccc4s3)cc2)cc1 [1-hk-85] | high
29 | C=CC(=O)OCCCCCCOc1ccc(C(=O)Oc2ccc(-c3ccc(OC(=O)c4ccc(OCCCCCCOC(=O)C=C)cc4)cc3C=NN=C3c4ccccc4-c4ccccc43)cc2)cc1 [1-hk-86] | high
